# Results from publication PMC9684079, “Pharmacological targeting of glutamatergic neurons within the brainstem for weight reduction” (Nature Metabolism, 2022).
# How the values were obtained:
# Insulin = target: T1, Insulin (Rattus norvegicus, UniProt P15127); test: biochemical; parameters: Cerep/Eurofins selectivity panel, receptors, channels and transporters, per cent inhibition at 10 uM; settings: read-out: % Inhibition
# T1 construct: gene Insr
# [1] = target: T2, Peptidase, Matrix metalloprotease, neutral endopeptidase (Homo sapiens, UniProt P08473); test: biochemical; parameters: Cerep/Eurofins selectivity panel, enzymes, per cent inhibition at 10 uM; settings: read-out: % Inhibition
# T2 construct: gene MME
# mouse Hcrtr1 = target: T3, mouse Hcrtr1 (Mus musculus, UniProt P58307); test: FLIPR Ca2+ flux, antagonism of orexin A response; type: cell-based
# T3 construct: CHO-K1 cells expressing Gα16 and mouse Hcrtr1
# [2] = target: Protein Serine/Threonine Kinase, CDC2/CCNB1 (CDK1/cyclinB) (Homo sapiens, UniProt P06493); test: biochemical; parameters: Cerep/Eurofins selectivity panel, enzymes, per cent inhibition at 10 uM; settings: read-out: % Inhibition
# [3] = target: T4, Growth Hormone Secretogogue (GHS, Ghrelin) (Homo sapiens, UniProt Q92847); test: biochemical; parameters: Cerep/Eurofins selectivity panel, receptors, channels and transporters, per cent inhibition at 10 uM; settings: read-out: % Inhibition
# T4 construct: gene GHSR
# Monoamine Oxidase MAO-B = target: T5, Monoamine Oxidase MAO-B (Homo sapiens, UniProt P27338); test: biochemical; parameters: Cerep/Eurofins selectivity panel, enzymes, per cent inhibition at 10 uM; settings: read-out: % Inhibition
# T5 construct: gene MAOB
# Peptidase, Factor Xa = target: T6, Peptidase, Factor Xa (Homo sapiens, UniProt P00742); test: biochemical; parameters: Cerep/Eurofins selectivity panel, enzymes, per cent inhibition at 10 uM; settings: read-out: % Inhibition
# T6 construct: gene F10; factor Xa
# Cyclooxygenase COX-1 = target: T7, Cyclooxygenase COX-1 (Homo sapiens, UniProt P23219); test: biochemical; parameters: Cerep/Eurofins selectivity panel, enzymes, per cent inhibition at 10 uM; settings: read-out: % Inhibition
# T7 construct: gene PTGS1
# [4] = target: Protein Tyrosine Kinase, SRC (Homo sapiens, UniProt P12931); test: biochemical; parameters: Cerep/Eurofins selectivity panel, enzymes, per cent inhibition at 10 uM; settings: read-out: % Inhibition
# [5] = target: Protein Serine/Threonine Kinase, MAPK1 (ERK2) (Homo sapiens, UniProt P28482); test: biochemical; parameters: Cerep/Eurofins selectivity panel, enzymes, per cent inhibition at 10 uM; settings: read-out: % Inhibition
# [6] = target: Protein Serine/Threonine Phosphatase, PPP3CA (Calccineurin, PP2B) (Homo sapiens, UniProt Q08209); test: biochemical; parameters: Cerep/Eurofins selectivity panel, enzymes, per cent inhibition at 10 uM; settings: read-out: % Inhibition
# [7] = target: T8, Peptidase, Matrix metalloprotease-7 (MMP-7) (Homo sapiens, UniProt P09237); test: biochemical; parameters: Cerep/Eurofins selectivity panel, enzymes, per cent inhibition at 10 uM; settings: read-out: % Inhibition
# T8 construct: gene MMP7
# [8] = target: Protein Serine/Threonine Kinase, MAP2K1 (MEK1) (Homo sapiens, UniProt Q02750); test: biochemical; parameters: Cerep/Eurofins selectivity panel, enzymes, per cent inhibition at 10 uM; settings: read-out: % Inhibition
# [9] = target: T9, Phosphodiesterase PDE10A2 (Homo sapiens, UniProt Q9Y233); test: biochemical; parameters: Cerep/Eurofins selectivity panel, enzymes, per cent inhibition at 10 uM; settings: read-out: % Inhibition
# T9 construct: gene PDE10A; isoform PDE10A2
# Carbonic Anhydrase II = target: T10, Carbonic Anhydrase II (Homo sapiens, UniProt P00918); test: biochemical; parameters: Cerep/Eurofins selectivity panel, enzymes, per cent inhibition at 10 uM; settings: read-out: % Inhibition
# T10 construct: gene CA2
# [10] = target: T11, Protein Tyrosine Kinase, EGF receptor (Homo sapiens, UniProt P00533); test: biochemical; parameters: Cerep/Eurofins selectivity panel, enzymes, per cent inhibition at 10 uM; settings: read-out: % Inhibition
# T11 construct: gene EGFR
# [11] = target: T12, Peptidase, Matrix metalloprotease-1 (MMP-1) (Homo sapiens, UniProt P03956); test: biochemical; parameters: Cerep/Eurofins selectivity panel, enzymes, per cent inhibition at 10 uM; settings: read-out: % Inhibition
# T12 construct: gene MMP1
# HMG-CoA Reductase = target: T13, HMG-CoA Reductase (Homo sapiens, UniProt P04035); test: biochemical; parameters: Cerep/Eurofins selectivity panel, enzymes, per cent inhibition at 10 uM; settings: read-out: % Inhibition
# T13 construct: gene HMGCR
# [12] = target: T14, Serotonin (5-Hydroxytryptamine) 5-HT4 (Cavia porcellus, UniProt O70528); test: biochemical; parameters: Cerep/Eurofins selectivity panel, receptors, channels and transporters, per cent inhibition at 10 uM; settings: read-out: % Inhibition
# T14 construct: gene HTR4
# [13] = target: T15, Hcrtr1 (orexin 1 receptor) (Homo sapiens, UniProt O43613); test: radioligand displacement of [3H]SB674042; also FLIPR Ca2+ antagonism in Chem-1 cells (IC50 […]); type: binding
# T15 construct: membranes from CHO-K1 cells stably expressing HCRTR1
# Calcium Channel N-type = target: T16, Calcium Channel N-type (Rattus norvegicus, UniProt Q02294); test: biochemical; parameters: Cerep/Eurofins selectivity panel, receptors, channels and transporters, per cent inhibition at 10 uM; settings: read-out: % Inhibition
# T16 construct: gene Cacna1b
# [14] = target: T17, Cholinesterase, Acetyl, ACES (Homo sapiens, UniProt P22303); test: biochemical; parameters: Cerep/Eurofins selectivity panel, enzymes, per cent inhibition at 10 uM
# T17 construct: gene ACHE
# [15] = target: T18, Protein Tyrosine Kinase, ZA70 (ZAP-70) (Homo sapiens, UniProt P43403); test: biochemical; parameters: Cerep/Eurofins selectivity panel, enzymes, per cent inhibition at 10 uM; settings: read-out: % Inhibition
# T18 construct: gene ZAP70
# Androgen (Testosterone) = target: T19, Androgen (Testosterone) (Homo sapiens, UniProt P10275); test: biochemical; parameters: Cerep/Eurofins selectivity panel, receptors, channels and transporters, per cent inhibition at 10 uM; settings: read-out: % Inhibition
# T19 construct: gene AR
# Xanthine Oxidase = target: T20, Xanthine Oxidase (Bos taurus, UniProt P80457); test: biochemical; parameters: Cerep/Eurofins selectivity panel, enzymes, per cent inhibition at 10 uM; settings: read-out: % Inhibition
# T20 construct: gene XDH
# T5 sequence (P27338 whole entry): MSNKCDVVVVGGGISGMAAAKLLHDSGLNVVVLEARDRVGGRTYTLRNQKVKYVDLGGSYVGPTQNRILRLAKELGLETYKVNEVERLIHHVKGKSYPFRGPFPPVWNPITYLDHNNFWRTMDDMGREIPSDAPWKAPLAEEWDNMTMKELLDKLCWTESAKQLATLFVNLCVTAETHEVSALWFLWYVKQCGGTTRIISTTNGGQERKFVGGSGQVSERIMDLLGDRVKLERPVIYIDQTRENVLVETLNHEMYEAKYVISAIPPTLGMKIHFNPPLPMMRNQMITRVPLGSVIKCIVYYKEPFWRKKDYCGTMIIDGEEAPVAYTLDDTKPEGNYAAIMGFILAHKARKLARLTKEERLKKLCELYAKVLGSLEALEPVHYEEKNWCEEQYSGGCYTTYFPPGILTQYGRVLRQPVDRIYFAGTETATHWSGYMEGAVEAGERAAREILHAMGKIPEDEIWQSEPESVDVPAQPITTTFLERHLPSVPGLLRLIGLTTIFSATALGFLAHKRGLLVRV
# Sequence of Protein Serine/Threonine Kinase, MAP2K1 (MEK1) (Q02750 whole entry): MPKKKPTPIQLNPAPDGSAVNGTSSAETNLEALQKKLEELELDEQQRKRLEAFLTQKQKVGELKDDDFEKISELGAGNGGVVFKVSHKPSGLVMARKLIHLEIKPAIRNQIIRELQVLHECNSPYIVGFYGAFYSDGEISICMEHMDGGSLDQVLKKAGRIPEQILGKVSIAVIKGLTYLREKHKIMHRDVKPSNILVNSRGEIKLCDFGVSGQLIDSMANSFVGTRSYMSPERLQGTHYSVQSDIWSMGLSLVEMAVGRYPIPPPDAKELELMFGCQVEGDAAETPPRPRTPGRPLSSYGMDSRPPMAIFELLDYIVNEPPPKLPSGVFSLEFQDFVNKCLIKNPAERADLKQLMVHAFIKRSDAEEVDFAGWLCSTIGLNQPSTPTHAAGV
# T1 sequence (P15127 whole entry): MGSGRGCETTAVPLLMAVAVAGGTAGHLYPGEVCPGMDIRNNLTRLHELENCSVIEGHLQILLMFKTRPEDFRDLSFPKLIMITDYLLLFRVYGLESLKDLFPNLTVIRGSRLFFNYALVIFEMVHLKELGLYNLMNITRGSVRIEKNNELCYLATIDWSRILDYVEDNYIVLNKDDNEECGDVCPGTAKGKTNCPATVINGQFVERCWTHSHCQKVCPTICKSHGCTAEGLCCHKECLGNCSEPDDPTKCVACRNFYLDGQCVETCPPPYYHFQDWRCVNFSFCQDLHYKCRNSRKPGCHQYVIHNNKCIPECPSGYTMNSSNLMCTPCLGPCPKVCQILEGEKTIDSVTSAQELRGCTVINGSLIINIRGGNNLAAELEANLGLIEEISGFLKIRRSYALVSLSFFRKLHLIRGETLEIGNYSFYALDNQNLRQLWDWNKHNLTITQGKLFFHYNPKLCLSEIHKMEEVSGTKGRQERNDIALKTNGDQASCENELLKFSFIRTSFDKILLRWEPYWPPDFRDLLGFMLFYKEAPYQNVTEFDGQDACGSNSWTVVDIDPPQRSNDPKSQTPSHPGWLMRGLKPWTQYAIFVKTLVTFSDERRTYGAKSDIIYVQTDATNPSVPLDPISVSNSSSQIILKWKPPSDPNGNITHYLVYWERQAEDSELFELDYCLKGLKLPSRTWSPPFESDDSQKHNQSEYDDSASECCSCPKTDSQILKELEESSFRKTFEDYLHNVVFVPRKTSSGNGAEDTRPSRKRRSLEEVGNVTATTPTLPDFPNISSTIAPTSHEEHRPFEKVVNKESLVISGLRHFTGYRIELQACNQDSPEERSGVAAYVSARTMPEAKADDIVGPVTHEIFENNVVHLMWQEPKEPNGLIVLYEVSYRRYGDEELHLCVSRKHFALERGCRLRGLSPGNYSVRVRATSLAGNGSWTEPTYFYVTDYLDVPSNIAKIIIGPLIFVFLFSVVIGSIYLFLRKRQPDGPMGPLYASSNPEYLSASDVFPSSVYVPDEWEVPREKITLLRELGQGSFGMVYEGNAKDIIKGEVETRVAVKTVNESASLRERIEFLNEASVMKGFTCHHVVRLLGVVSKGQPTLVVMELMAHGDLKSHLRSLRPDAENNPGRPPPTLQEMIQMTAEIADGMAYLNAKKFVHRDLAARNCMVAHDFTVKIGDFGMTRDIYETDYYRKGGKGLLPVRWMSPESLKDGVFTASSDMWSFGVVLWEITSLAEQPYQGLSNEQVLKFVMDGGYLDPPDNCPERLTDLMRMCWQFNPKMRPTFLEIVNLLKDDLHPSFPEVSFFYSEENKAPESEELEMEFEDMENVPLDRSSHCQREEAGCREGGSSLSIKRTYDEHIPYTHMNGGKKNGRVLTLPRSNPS
# T16 sequence (Q02294 whole entry): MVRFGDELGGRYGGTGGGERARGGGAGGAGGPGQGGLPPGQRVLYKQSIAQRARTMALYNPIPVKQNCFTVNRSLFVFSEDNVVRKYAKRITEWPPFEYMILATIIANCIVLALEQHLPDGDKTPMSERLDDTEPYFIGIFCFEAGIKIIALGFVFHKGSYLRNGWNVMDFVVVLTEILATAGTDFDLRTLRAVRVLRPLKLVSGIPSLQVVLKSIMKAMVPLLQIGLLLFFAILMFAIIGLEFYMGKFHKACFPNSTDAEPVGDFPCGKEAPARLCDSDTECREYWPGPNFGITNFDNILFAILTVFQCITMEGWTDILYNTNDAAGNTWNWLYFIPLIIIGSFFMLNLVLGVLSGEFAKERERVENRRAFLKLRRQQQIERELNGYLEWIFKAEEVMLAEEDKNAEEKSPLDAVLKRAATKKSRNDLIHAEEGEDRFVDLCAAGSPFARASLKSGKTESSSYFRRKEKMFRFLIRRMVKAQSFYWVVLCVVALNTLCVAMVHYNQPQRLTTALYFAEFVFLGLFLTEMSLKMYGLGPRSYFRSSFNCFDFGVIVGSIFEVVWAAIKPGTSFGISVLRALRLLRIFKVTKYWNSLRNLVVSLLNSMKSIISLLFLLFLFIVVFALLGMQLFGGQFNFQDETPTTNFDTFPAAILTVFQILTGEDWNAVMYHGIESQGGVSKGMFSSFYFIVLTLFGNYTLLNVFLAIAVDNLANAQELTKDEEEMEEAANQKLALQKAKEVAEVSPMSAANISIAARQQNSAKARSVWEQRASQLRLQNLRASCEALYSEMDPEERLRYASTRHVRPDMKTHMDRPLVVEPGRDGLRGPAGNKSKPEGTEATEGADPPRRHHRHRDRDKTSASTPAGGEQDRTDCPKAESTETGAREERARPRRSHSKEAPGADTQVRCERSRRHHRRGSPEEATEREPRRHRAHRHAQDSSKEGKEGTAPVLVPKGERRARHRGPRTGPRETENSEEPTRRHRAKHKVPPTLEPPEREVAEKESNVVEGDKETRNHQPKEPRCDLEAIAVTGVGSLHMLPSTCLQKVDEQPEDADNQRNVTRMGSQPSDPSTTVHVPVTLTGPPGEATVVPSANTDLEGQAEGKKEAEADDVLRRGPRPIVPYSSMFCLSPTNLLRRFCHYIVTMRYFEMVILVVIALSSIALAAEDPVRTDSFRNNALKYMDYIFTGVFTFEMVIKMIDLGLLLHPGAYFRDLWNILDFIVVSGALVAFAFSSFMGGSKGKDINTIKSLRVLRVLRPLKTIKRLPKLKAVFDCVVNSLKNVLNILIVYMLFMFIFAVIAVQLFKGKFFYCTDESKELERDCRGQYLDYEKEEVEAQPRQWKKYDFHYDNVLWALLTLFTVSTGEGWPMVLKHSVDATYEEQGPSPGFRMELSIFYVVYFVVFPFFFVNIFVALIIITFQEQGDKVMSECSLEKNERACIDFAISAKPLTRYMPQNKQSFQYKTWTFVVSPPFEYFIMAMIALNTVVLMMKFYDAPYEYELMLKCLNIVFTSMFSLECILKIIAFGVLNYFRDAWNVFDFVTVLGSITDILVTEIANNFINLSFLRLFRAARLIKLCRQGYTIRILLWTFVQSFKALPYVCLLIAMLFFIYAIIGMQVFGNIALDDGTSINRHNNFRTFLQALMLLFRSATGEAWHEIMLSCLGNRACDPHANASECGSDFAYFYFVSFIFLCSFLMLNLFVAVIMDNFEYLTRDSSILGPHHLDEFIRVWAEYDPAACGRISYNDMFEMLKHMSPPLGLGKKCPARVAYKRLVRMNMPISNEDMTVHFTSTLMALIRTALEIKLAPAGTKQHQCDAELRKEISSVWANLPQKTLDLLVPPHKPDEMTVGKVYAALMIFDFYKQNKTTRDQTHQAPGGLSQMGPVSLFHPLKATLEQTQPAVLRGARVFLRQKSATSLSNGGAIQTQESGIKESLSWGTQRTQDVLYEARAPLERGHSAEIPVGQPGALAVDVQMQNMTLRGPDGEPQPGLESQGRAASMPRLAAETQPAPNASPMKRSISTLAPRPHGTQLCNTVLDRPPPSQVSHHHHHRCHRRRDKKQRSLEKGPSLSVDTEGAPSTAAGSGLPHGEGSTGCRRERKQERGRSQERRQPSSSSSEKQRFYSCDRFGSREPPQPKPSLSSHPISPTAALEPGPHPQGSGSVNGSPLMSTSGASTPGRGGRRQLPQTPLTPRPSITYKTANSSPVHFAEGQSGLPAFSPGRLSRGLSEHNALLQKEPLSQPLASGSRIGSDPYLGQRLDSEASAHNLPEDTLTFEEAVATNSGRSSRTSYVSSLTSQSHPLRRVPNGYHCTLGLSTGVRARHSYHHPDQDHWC
# T12 sequence (P03956 whole entry): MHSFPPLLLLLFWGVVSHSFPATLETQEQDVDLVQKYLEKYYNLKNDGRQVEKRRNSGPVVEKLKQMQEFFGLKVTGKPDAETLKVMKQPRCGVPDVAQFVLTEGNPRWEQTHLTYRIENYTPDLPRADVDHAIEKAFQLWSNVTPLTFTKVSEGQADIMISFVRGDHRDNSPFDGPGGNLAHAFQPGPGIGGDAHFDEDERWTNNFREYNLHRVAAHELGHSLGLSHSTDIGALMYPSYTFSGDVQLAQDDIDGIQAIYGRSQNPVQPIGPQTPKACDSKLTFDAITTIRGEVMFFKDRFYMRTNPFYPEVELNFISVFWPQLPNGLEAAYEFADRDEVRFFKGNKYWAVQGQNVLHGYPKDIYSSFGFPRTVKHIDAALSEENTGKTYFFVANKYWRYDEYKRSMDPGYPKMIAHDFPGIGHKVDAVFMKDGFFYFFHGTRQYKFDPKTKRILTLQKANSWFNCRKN
structure (smiles),measurement,setting,value
C[C@]1(Nc2cnc(C(F)(F)F)cn2)CCC[C@@H]1NC(=O)c1ncccc1-n1nccn1 [CVN45502],inhibition at 10 µM,Insulin,2%
same,inhibition at 10 µM,[1],4%
same,IC50,mouse Hcrtr1,18 nM
same,inhibition at 10 µM,[2],14%
same,inhibition at 10 µM,[3],-5%
same,inhibition at 10 µM,Monoamine Oxidase MAO-B,8%
same,inhibition at 10 µM,"Peptidase, Factor Xa",-2%
same,inhibition at 10 µM,Cyclooxygenase COX-1,5%
same,inhibition at 10 µM,[4],-7%
same,inhibition at 10 µM,[5],5%
same,inhibition at 10 µM,[6],12%
same,inhibition at 10 µM,[7],6%
same,inhibition at 10 µM,[8],-4%
same,inhibition at 10 µM,[9],35%
same,inhibition at 10 µM,Carbonic Anhydrase II,-4%
same,inhibition at 10 µM,[10],-22%
same,inhibition at 10 µM,[11],18%
same,inhibition at 10 µM,HMG-CoA Reductase,-4%
same,inhibition at 10 µM,[12],-4%
same,Ki,[13],13.8 nM
same,inhibition at 10 µM,Calcium Channel N-type,-1%
same,inhibition at 10 µM,[14],-8%
same,inhibition at 10 µM,[15],-1%
same,inhibition at 10 µM,Androgen (Testosterone),-5%
same,inhibition at 10 µM,Xanthine Oxidase,16%
